Laboratory results reported in patent US20250092022A1, “MUSCARINIC RECEPTOR 4 ANTAGONISTS AND METHODS OF USE” (Neurocrine Biosciences, Inc., priority 2021, published 2025).

biological target: human M4 receptor (Homo sapiens (Human), UniProt P08173); assay: Binding assay: inhibition of radioligand (tritiated N-methylscopolamine) binding to membranes from CHO cells expressing human M4 receptor; conditions: CHO cell membranes, 1.5 nM tritiated N-methylscopolamine
Description: Binding affinity (Ki) for the compounds was measured by inhibition of radioligand binding to membranes from CHO cells expressing human M4 receptor. Membranes were prepared by nitrogen cavitation and differential centrifugation as previously described (Hoare et al., Mol. Pharmacol. 2003 March; 63(3): 751-65). The radioligand employed was tritiated N-methylscopolamine, used at a concentration of 1.5 nM. A dose-response of twelve concentrations of compound was used, ranging from […]. The assay buffer was 50 mM HEPES, 100 mM NaCl, 5 mM MgCl2, 1 mM ethylenediaminetetraacetic acid, pH-adjusted to pH 7.4. Membranes, radioligand and compound were incubated together for 90 minutes at 37° C., in a total volume of 150 μL in a 96-well plate. Receptor-bound radioligand was then collected by harvesting the assay over glass fiber filters pretreated with polyethylenimine to trap the cell membranes, using rapid vacuum filtration. Harvesting and radioactivity counting was conducted as previously described (see, e.g., Hoare et al., Mol. Pharmacol. 2003 63(3):751-65); Erratum at Mol. Pharmacol. 2005 July; 68(1): 260).

Chain of human M4 receptor (P08173 whole entry): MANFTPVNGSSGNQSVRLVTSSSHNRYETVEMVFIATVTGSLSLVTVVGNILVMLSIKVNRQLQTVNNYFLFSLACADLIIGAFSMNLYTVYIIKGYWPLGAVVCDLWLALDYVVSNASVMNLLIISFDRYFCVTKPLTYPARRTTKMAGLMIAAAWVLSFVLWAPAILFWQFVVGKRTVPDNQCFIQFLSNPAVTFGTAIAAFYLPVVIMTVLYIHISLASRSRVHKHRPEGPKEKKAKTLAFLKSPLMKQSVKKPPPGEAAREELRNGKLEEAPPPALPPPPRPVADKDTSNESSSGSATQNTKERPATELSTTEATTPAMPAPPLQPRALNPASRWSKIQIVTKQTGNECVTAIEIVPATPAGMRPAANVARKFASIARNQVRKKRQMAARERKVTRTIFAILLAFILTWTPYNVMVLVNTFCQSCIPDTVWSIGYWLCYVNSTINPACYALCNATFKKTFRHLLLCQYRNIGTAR

Structure (SMILES)	Ki [nM]
CC[C@@H](O)COc1cnc(N2C[C@@H](C)N(C(=O)OC3CC4(C3)CN(Cc3ccccc3)C4)[C@@H](C)C2)nc1 [Compound 58, 2-benzyl-2-azaspiro [3.3]heptan-6-yl (2R,6S)-4-{5-[(2R)-2-hydroxybutoxy]pyrimidin-2-yl}-2,6-dimethyl-piperazine-1-carboxylate]	100 to 500
C[C@@H]1CN(c2ncc3c(n2)CCS3(=O)=O)C[C@H](C)N1C(=O)OC1CC2(C1)CN(Cc1ccccc1)C2 [Compound 39, 2-benzyl-2-azaspiro [3.3]heptan-6-yl (2R,6S)-4-{5,5-dioxo-6H, 7H-5λ^6-thieno[3,2-d]pyrimidin-2-yl}-2,6-dimethylpiperazine-1-carboxylate]	100 to 500
CCS(=O)(=O)c1cnc(N2C[C@@H](C)N(C(=O)OC3CC4(C3)CN(Cc3ccccc3)C4)C[C@@H]2C)nc1 [Compound 11, 2-benzyl-2-azaspiro [3.3]heptan-6-yl (2R,5S)-4-[5-(ethane-sulfonyl)pyrimidin-2-yl]-2,5-dimethylpiperazine-1-carboxylate]	< 100
Cc1nc(N2C[C@@H](C)N(C(=O)OC3CC4(C3)CN(Cc3ccccc3)C4)C[C@@H]2C)ncc1S(C)(=O)=O [Compound 25, 2-benzyl-2-azaspiro [3.3]heptan-6-yl (2R,5S)-4-(5-methane-sulfonyl-4-methyl-pyrimidin-2-yl)-2,5-dimethylpiperazine-1-carboxylate]	< 100
CCS(=O)(=O)c1cnc(N2CCN(C(=O)NC3CC4(C3)CN(Cc3ccccc3)C4)[C@H](C)C2)nc1 [Compound 7, (2R)-N-{2-benzyl-2-azaspiro[3.3]heptan-6-yl}-4-[5-(ethanesulfonyl)pyrimidin-2-yl]-2-methylpiperazine-1-carboxamide]	100 to 500
C[C@@H]1CN(c2ncc(S(=O)(=O)C3CC3)cn2)C[C@H](C)N1C(=O)NC1CC2(C1)CN(Cc1ccccc1)C2 [Compound 3, (2R,6S)-N-{2-benzyl-2-azaspiro[3.3]heptan-6-yl}-4-[5-(cyclopropanesulfonyl)pyrimidin-2-yl]-2,6-dimethylpiperazine-1-carboxamide]	< 100
C[C@@H]1CN(c2ncc(S(C)(=O)=O)cn2)C[C@H](C)N1C(=O)OC1CC2(C1)CN(Cc1ccccc1)C2 [Compound 33, 2-benzyl-2-azaspiro [3.3]heptan-6-yl (2R,6S)-4-(5-methane-sulfonylpyrimidin-2-yl)-2,6-dimethylpiperazine-1-carboxylate]	< 100

Continued, values first:

Ki [nM]	Structure (SMILES)
< 100	CCS(=O)(=O)c1cnc(N2CCN(C(=O)OC3CC4(C3)CN(Cc3ccccc3)C4)[C@H](C)C2)nc1 [Compound 21, 2-benzyl-2-azaspiro [3.3]heptan-6-yl (2R)-4-[5-(ethanesulfonyl)-pyrimidin-2-yl]-2-methylpiperazine-1-carboxylate]
< 100	C[C@@H]1CN(c2ncc(S(=O)(=O)C(F)F)cn2)[C@@H](C)CN1C(=O)OC1CC2(C1)CN(Cc1ccccc1)C2 [Compound 24, 2-benzyl-2-azaspiro [3.3]heptan-6-yl (2R,5S)-4-(5-difluoromethanesulfonyl-pyrimidin-2-yl)-2,5-dimethylpiperazine-1-carboxylate]
< 100	C[C@@H]1CN(c2ncc(S(=O)(=O)C3CC3)cn2)[C@@H](C)CN1C(=O)OC1CC2(C1)CN(Cc1ccccc1)C2 [Compound 20, 2-benzyl-2-azaspiro [3.3]heptan-6-yl (2R,5S)-4-[5-(cyclo-propanesulfonyl)pyrimidin-2-yl]-2,5-dimethyl-piperazine-1-carboxylate]
100 to 500	CCS(=O)(=O)c1cnc(N2C[C@@H](C)N(C(=O)OC3CC4(C3)CN(Cc3ccccc3)C4)[C@H](C)C2)nc1 [Compound 18, 2-benzyl-2-azaspiro [3.3]heptan-6-yl (2R,6R)-4-[5-(ethane-sulfonyl)pyrimidin-2-yl]-2,6-dimethylpiperazine-1-carboxylate]
